Each structure is given as a SMILES string.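 Cells were grown in 96-well plates and exposed to each compound for 48 hours at five concentrations; endpoints were interpolated linearly between bracketing concentrations, or set to the highest concentration if not reached. GI50 = concentration required for 50% inhibition of growth. TGI marks complete inhibition of growth.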

These results are taken from PubChem BioAssay (NCI).

Some test systems named below: COLO 205 colon; EKVX NSCLC; HOP-92 NSCLC; NCI-H226 lung; RPMI-8226 leukemia; RXF 393 renal; SF-268 CNS; SK-MEL-5 melanoma; SK-OV-3 ovarian; UACC-62 melanoma.
Common to all, as to assay: inhibition of tumour cell growth, NCI panel, 48 h

As to `CCC(C)NC1=NCC(C)S1` (centres undefined), the TGI with COLO 205 colon, with EKVX NSCLC, in the assay with HOP-92 NSCLC, with NCI-H226 lung, in the assay on RPMI-8226 leukemia and in the assay with RXF 393 renal was > 100 µM throughout. The TGI in the assay with SF-268 CNS, with SK-MEL-5 melanoma, in the assay with SK-OV-3 ovarian and in the assay with UACC-62 melanoma was > 100 µM each time.

Turning to `CCOP(=O)(OCC)C(c1ccc(F)cc1)N(C(=O)NC(F)(F)F)c1cccc(C(F)(F)F)c1` (centres undefined), the TGI in the assay with COLO 205 colon is > 100 µM; with EKVX NSCLC, > 100 µM; in the assay on HOP-92 NSCLC, 98.6 µM; with NCI-H226 lung, > 100 µM; in the assay on RPMI-8226 leukemia, > 100 µM; with RXF 393 renal it was > 100 µM. In addition, the TGI in the assay on SF-268 CNS, in the assay with SK-MEL-5 melanoma, in the assay on SK-OV-3 ovarian and in the assay with UACC-62 melanoma was > 100 µM each time.

On to `C=C(C)[C@H]1Cc2c(ccc3c2O[C@@H]2COc4cc(OC)c(OC)cc4[C@@H]2C3=O)O1`, for which the TGI is 0.539 µM in the assay on COLO 205 colon; > 88.4 µM with EKVX NSCLC; 18.1 µM in the assay with HOP-92 NSCLC; 31.3 µM in the assay on NCI-H226 lung; 8.84 µM with RPMI-8226 leukemia; 6.41 µM in the assay on RXF 393 renal. For the same compound, the TGI with SF-268 CNS was 28.2 µM; in the assay with SK-MEL-5 melanoma, 3.04 µM; in the assay on SK-OV-3 ovarian, 48.8 µM; in the assay on UACC-62 melanoma, 44.7 µM.

On to `COc1ccccc1CNCCCN1C(=O)c2ccc3c4c(ccc(c24)C1=O)C(=O)N(CCCNCCNCCCN)C3=O`, for which the GI50 with EKVX NSCLC is 4.17 µM; in the assay on HOP-92 NSCLC, 6.7 µM; in the assay on NCI-H226 lung it was 2.99 µM; with RPMI-8226 leukemia it was 10.9 µM; in the assay on RXF 393 renal, 1.65 µM; in the assay on SF-268 CNS, 2.13 µM. In addition, the GI50 in the assay with SK-MEL-5 melanoma is 1.57 µM; with SK-OV-3 ovarian, 4.04 µM; in the assay on UACC-62 melanoma it was 1.68 µM. Also, the TGI in the assay with EKVX NSCLC was 16.3 µM; with HOP-92 NSCLC, 38.8 µM; in the assay on NCI-H226 lung, 21.3 µM; with RPMI-8226 leukemia, > 100 µM; with RXF 393 renal it was 7.12 µM; in the assay with SF-268 CNS, 11.6 µM. For the same compound, the TGI was 3.02 µM in the assay on SK-MEL-5 melanoma, 26.3 µM in the assay on SK-OV-3 ovarian and 3.82 µM with UACC-62 melanoma.

Consider `CCOC(=O)CNC(=O)N(CC)C12CC3CC(CC(C3)C1)C2`, for which the TGI was found to be 227 µM in the assay on COLO 205 colon; 358 µM with EKVX NSCLC; 222 µM in the assay on HOP-92 NSCLC; 371 µM with NCI-H226 lung; 316 µM with RPMI-8226 leukemia; 388 µM in the assay with RXF 393 renal. Also, the TGI came out at 317 µM in the assay on SF-268 CNS, 195 µM with SK-MEL-5 melanoma, 216 µM in the assay on SK-OV-3 ovarian and 218 µM in the assay on UACC-62 melanoma.

For `CC1CC2=C(S(=O)(=O)c3ccccc3)CC(S(=O)(=O)c3ccccc3)(S(=O)(=O)c3ccccc3)CC21` (centres undefined), the TGI with COLO 205 colon, in the assay with EKVX NSCLC, with NCI-H226 lung, in the assay with RPMI-8226 leukemia, in the assay with RXF 393 renal and in the assay with SF-268 CNS was > 100 µM in each case. Also, the TGI in the assay with SK-MEL-5 melanoma, in the assay on SK-OV-3 ovarian and with UACC-62 melanoma was > 100 µM in each case.

In the case of `CCOC(=O)Cn1c(=O)ccn(COCCO)c1=O`, the TGI in the assay with COLO 205 colon, with EKVX NSCLC, with HOP-92 NSCLC, in the assay with RPMI-8226 leukemia, in the assay on RXF 393 renal and with SF-268 CNS was > 100 µM each time. Also, the TGI with SK-MEL-5 melanoma was > 100 µM.

`COCc1nc2c(OC)c(-c3nc4nc(N5CCN(C)CC5)ccc4[nH]3)cc(OC)c2n1C`: the TGI is 21.5 µM in the assay with COLO 205 colon; 81.2 µM in the assay with EKVX NSCLC; > 100 µM with HOP-92 NSCLC; 87.4 µM with NCI-H226 lung; 59.1 µM in the assay on RPMI-8226 leukemia; 57.6 µM with RXF 393 renal. Also, the values for the TGI with SF-268 CNS, with SK-OV-3 ovarian and in the assay with UACC-62 melanoma were > 100 µM, > 100 µM and 41.1 µM, respectively.

Consider `NNC(=O)c1c(SCc2ccccc2)nc2c3ccccc3ccn12`, for which the TGI was > 100 µM in the assay on COLO 205 colon; > 100 µM in the assay on EKVX NSCLC; 68.5 µM with HOP-92 NSCLC; > 100 µM with NCI-H226 lung; 93.4 µM with RXF 393 renal; > 100 µM with SF-268 CNS. Also, the figures for the TGI in the assay on SK-MEL-5 melanoma, in the assay with SK-OV-3 ovarian and in the assay with UACC-62 melanoma were 28.3 µM, > 100 µM and 29.6 µM, respectively.

Take `C/C(=N/NC(N)=S)c1ccc[nH]1`: the TGI in the assay with COLO 205 colon, in the assay with EKVX NSCLC, with HOP-92 NSCLC, in the assay with NCI-H226 lung, with RPMI-8226 leukemia and in the assay on RXF 393 renal was > 100 µM each time. The TGI in the assay on SF-268 CNS, in the assay with SK-MEL-5 melanoma, in the assay with SK-OV-3 ovarian and with UACC-62 melanoma was > 100 µM each time.

For `COc1ccc(S(=O)(=O)c2ccccc2[N+](=O)[O-])cc1`, the TGI in the assay with COLO 205 colon, in the assay on EKVX NSCLC, with HOP-92 NSCLC, with NCI-H226 lung, with RPMI-8226 leukemia and in the assay on RXF 393 renal was > 100 µM in each case. The TGI in the assay with SF-268 CNS, in the assay on SK-MEL-5 melanoma, with SK-OV-3 ovarian and in the assay on UACC-62 melanoma was > 100 µM throughout.

On to `COc1cc2oc(-c3ccc(O)cc3)c(OC)c(=O)c2c(O)c1OC`, for which the GI50 in the assay on COLO 205 colon is 32.1 µM; in the assay with EKVX NSCLC, 97 µM; in the assay on HOP-92 NSCLC, 43.9 µM; in the assay on NCI-H226 lung it was 45.7 µM; in the assay with RXF 393 renal, 29 µM; with SF-268 CNS it was 79 µM. Also, the GI50 is 70.1 µM in the assay with SK-MEL-5 melanoma, 49.6 µM in the assay with SK-OV-3 ovarian and 79.3 µM in the assay with UACC-62 melanoma. Besides, the TGI in the assay on COLO 205 colon, in the assay with EKVX NSCLC, with HOP-92 NSCLC, in the assay with NCI-H226 lung, in the assay on RXF 393 renal and in the assay on SF-268 CNS was > 100 µM each time. The TGI in the assay with SK-MEL-5 melanoma, in the assay on SK-OV-3 ovarian and with UACC-62 melanoma was > 100 µM in each case.

With `CC(=O)Nc1ccc(/C=C/c2ccc(NC(=O)Nc3ccc(/C=C/c4ccc(NC(C)=O)cc4S(=O)(=O)O)c(S(=O)(=O)O)c3)cc2S(=O)(=O)O)c(S(=O)(=O)O)c1`, the TGI is > 100 µM in the assay with COLO 205 colon; > 100 µM with EKVX NSCLC; > 75.6 µM in the assay on HOP-92 NSCLC; > 100 µM in the assay with NCI-H226 lung; > 100 µM in the assay with RPMI-8226 leukemia; > 100 µM in the assay with RXF 393 renal. The TGI with SF-268 CNS, in the assay on SK-MEL-5 melanoma, in the assay with SK-OV-3 ovarian and with UACC-62 melanoma was > 100 µM in each case.

For `COCCCNc1nc(N)c(C#N)c(C#N)c1C#N`, the TGI with COLO 205 colon, in the assay on EKVX NSCLC, in the assay on NCI-H226 lung, with RPMI-8226 leukemia, with RXF 393 renal and in the assay on SF-268 CNS was > 10 µM each time. Moreover, the TGI in the assay with SK-MEL-5 melanoma, in the assay on SK-OV-3 ovarian and in the assay with UACC-62 melanoma was > 10 µM in each case.

As for `CCOC(=O)c1ccc(N[C@@H]2c3cc4c(cc3C(c3cc(OC)c(O)c(OC)c3)[C@H]3C(=O)OCC32)OCO4)cc1O` (some centres undefined), the TGI in the assay with COLO 205 colon was 7.69 µM; in the assay with EKVX NSCLC, > 22.6 µM; in the assay with HOP-92 NSCLC, 7.38 µM; in the assay on NCI-H226 lung it was 2.39 µM; with RPMI-8226 leukemia, 4.77 µM; in the assay with RXF 393 renal, 6.77 µM. The TGI in the assay on SF-268 CNS came out at 25.3 µM; in the assay on SK-MEL-5 melanoma, 3.02 µM; with SK-OV-3 ovarian, 2.2 µM; in the assay with UACC-62 melanoma, 2.4 µM.
